Experimental data reported in patent US7534915B2, “Non-symmetrical gelling agent” (Applied Nanosystems B.V., priority 2003, dated 2009).
One block for each molecule: values may come before it.

Assays:
α-chymotrypsin = test: α-chymotrypsin-induced cleavage followed by fluorescence detection of released 6-AQ; type: biochemical; conditions: for Km / Vmax: from Lineweaver-Burke and Eadie-Hofstee plots, for 12 only points where V still increased; for Cleavage (6-AQ formation) by α-chymotrypsin: substrate 7.54 mM (12 as gel, 39 as solution), α-chymotrypsin 40 mM as printed
Source text: In order to investigate the enzymatic cleavage of a gelator-drug conjugate, we selected the enzyme α-chymotrypsin, which is capable of cleaving amide bonds at the C═O terminus of L-phenylalanine-based substrates like compound 12 (CHex(AmPhe-6AQ)(AmEtOEtOH)2), resulting here in the release of the fluorogenic “model drug” 6-aminoquinoline (6-AQ). This system allows easy monitoring of the cleavage kinetics owing to the fact that the excitation and emission maxima for the amide and amino form of this compound are adequately separated (amide form: λex=315 nm, λem=370 nm, amine form: λex=339 nm, λem=550 nm).
Gelator 12 was dissolved in a small amount of DMSO (100 μL), whereas α-chymotrypsin was dissolved in a buffer solution (Tris-HCl, 0.1 M, pH 7.75, 900 μL). […] In order to determine the effect of gelation on the enzymatic cleavage, the water-soluble, non-gelating, model substrate 39 was synthesized with a structure similar to that of gelator 12.
Fluorescence experiments were carried out in which the α-chymotrypsin-induced cleavage of compounds 12 and 39 was followed through the detection of 6-AQ.
Legend to FIG. 2 (from bottom to top): Trace a: gel of gelator 12 (0.5 wt %=7.54 mM); trace b: gel of gelator 12 (0.5 wt %=7.54 mM)+α-chymotrypsin ([…]); trace c: gel of gelator 12 (0.5 wt %=7.54 mM)+compound 39 (7.54 mM)+α-chymotrypsin (40 μM); trace d: solution of compound 39 (7.54 mM)+α-chymotrypsin (40 mM)
Performing the cleavage experiments for both 12 and 39 at different substrate concentrations and plotting the initial rates as a function of the substrate concentration (i.e., 12 or 39) results in the points plotted in FIG. 3. […] The initial rates for gelator 12, however, increase up to a certain point, after which they remain the same, even at much higher concentrations. From the corresponding Lineweaver-Burke and Eadie-Hofstee plots, values for Vmax and Km could be obtained for both compounds. […] From these points, the following values were calculated. […] Using these values for Vmax and Km, the theoretical curves could be plotted for both compounds. For compound 39, the experimentally determined points fitted very well on the curve. […] Below this concentration, a sample of 12 exists as a solution. So, even though the molecules in a gel are in constant equilibrium with those in solution and the overall gelator concentration may increase well above the CGC (thus bringing about gelation), the concentration of gelator in solution can never exceed the CGC. The fact that the initial rate for 12 no longer increases once the substrate (i.e., gelator) concentration exceeds the CGC, proves that only the gelator molecules in solution can be cleaved by the enzyme.

[1] = Gel test (vial inversion); type: physicochemical
Procedure: A weighed amount of solid was dissolved in 0.5 or 1 ml of the solvent in a closed 2.0 ml vial using a heating gun or a heating block and subsequently slowly cooled to room temperature by standing in the air. Gelation was determined by turning the vial upside down and gentle shaking. If no flow of the mass was observed, the mass was defined to be a gel. Alternatively, a weighed amount of solid was dissolved in 1 mL of solvent by the addition of acid or base. The subsequent addition of base or acid then gave gelation. Alternatively, a weighed amount of solid was dissolved in a small amount of solvent. The subsequent addition of a large amount of non-solvent then gave gelation. Alternatively, the solution of gelator/thickener was added to the non-solvent, resulting in gelation. Alternatively, a weighed amount of solid was mixed with 1 mL of solvent by sonication. After stopping the sonication, gelation occurred. Alternatively a weighed amount of solid was mixed with 1 mL of solvent by brief vortexing after which gelation occurred. Alternatively a weighed amount of solid was mixed with 1 mL of solvent after which gelation occurred.

[2] = Cryo-TEM and small angle x-ray diffraction of hydrogel fibers; type: physicochemical
Procedure: Cryo-transmission Electron Microscopy Measurements
A gel was prepared following one of the procedures described above. A small amount of the gel was carefully deposited on a bare copper grid, using a spatula. The excess solution was blotted with a filter paper, leaving a thin sample film. The grid was subsequently plunged into liquid ethane for vitrification. The vitrified specimens were transferred to a Gatan model 626 cryostage and observed in a Philips CM 120 electron microscope operating at 120 kV. The images were recorded under low-dose conditions at about −170° C. The samples were all prepared in duplo.
Presumably, the lack of (C3-)symmetry prevents the aggregation of the fibers into large bundles from taking place, and leads to the highly uniform and very low fiber diameter, the latter in turn leading to clear gel.
The left-side image is a low magnification, the right-side image a high magnification (white bar at the upper left-hand quarter in the right-side image corresponds to 4.5 nm). […] The high uniformity of the fiber thicknesses can be clearly observed in the close-up image on the right.

[3] = TEM particle size of a compound of interest included in gels of gelator 12; type: physicochemical; conditions: for Crystal size, reference without gelator: DMSO/H2O 100 μL/900 μL
Procedure: Transmission Electron Microscopy Measurements
A gel was prepared following one of the procedures described above. A small amount of the gel was carefully deposited on a carbon-coated copper grid, using a spatula. The excess solution was blotted with a filter paper, leaving a thin sample film. The samples were examined using a JEOL 1200EX (80-100 kV) and pictures were taken of representative parts. The samples were all prepared in duplo.
To a solution containing 4 mg (6.0×10^−3 mmol) of gelator 12 (CHex(AmPhe-6AQ)(AmEtOEtOH)2) and 1.22 mg (6.0×10^−3 mmol) of pyrene in 100 μL of DMSO, 900 μL of distilled water were quickly added.
To determine the stability in time of pyrene particles in a gel, samples were prepared as described in the previous paragraph and examined with TEM after 7 days, 18 days, 1 month and 2 months. As reference, samples containing only pyrene in DMSO/H2O (100 μL/900 μL) were also prepared. Moreover, to determine the effect of the gelator in solution, i.e., not in the gel, samples containing 4 mg (6.0×10^−3 mmol) of gelator 12 (CHex(AmPhe-6AQ)(AmEtOEtOH)2), 1.22 mg (6.0×10^−3 mmol) of pyrene, 100 μL of DMSO and 900 μL of 1N HCl were prepared. […] All samples were kept at room temperature, in the dark.
To a solution containing 1.96 mg (2.9×10^−3 mmol) of gelator 12 (CHex(AmPhe-6AQ)(AmEtOEtOH)2) and 1.0 mg (2.9×10^−3 mmol) of danazol in 50 μL of DMSO, 950 μL of distilled water were quickly added. […] In a reference sample consisting only of danazol in 100 μL of DMSO and 900 μL of distilled water, rod-shaped danazol particles are 0.5-10 μm wide and 15-53 μm long. […]

Km (α-chymotrypsin): 1.8 mM | Cleavage (6-AQ formation) in the absence of α-chymotrypsin (α-chymotrypsin; gel 0.5 wt % = 7.54 mM, fluorescence at 550 nm): no cleavage | Gel test ([1]; 0.3 mg/mL in H2O or PBS): clear gel | Gel test ([1]; 0.5 mg/mL in H2O/DMSO (19:1)): clear gel | Gel test ([1]; 0.6 mg/mL in H2O/EtOH (19:1)): clear gel | Gel formation ([1]; 4 mg with pyrene in DMSO 100 μL + 1N HCl 900 μL): does not gelate | Gel test ([1]; 25 mg/ml in EtOH): turbid gel | Gel formation ([1]; DMSO 100 μL + α-chymotrypsin in Tris-HCl 0.1 M pH 7.75 900 μL, rapid addition): clear, homogeneous gel | Critical gelator concentration (CGC) ([1]; H2O:DMSO=9:1): 1.5 mM | Gel fiber thickness [2]: about 4.5 nm
SMILES: O=C(NCCOCCO)[C@@H]1C[C@H](C(=O)NCCOCCO)C[C@H](C(=O)N[C@@H](Cc2ccccc2)C(=O)Nc2ccc3ncccc3c2)C1 [Compound 12, CHex(AmPhe-6AQ)(AmEtOEtOH)2]
Vmax (α-chymotrypsin): 4.1 µmol/min | experimentally determined Vmax (α-chymotrypsin; plateau of initial rate above the CGC): 1.8 µmol/min | Cleavage (6-AQ formation) by α-chymotrypsin (α-chymotrypsin): minor cleavage

Km (α-chymotrypsin): 4.9 mM | Solubility in water [1]: water-soluble | Gelation behaviour ([1]; water): non-gelating
SMILES: O=C(O)CCCC(=O)N[C@@H](Cc1ccccc1)C(=O)Nc1ccc2ncccc2c1 [Compound 39, reference compound]
Vmax (α-chymotrypsin): 22.3 µmol/min | Cleavage (6-AQ formation) by α-chymotrypsin (α-chymotrypsin): more readily cleaved

SMILES: c1cc2ccc3cccc4ccc(c1)c2c34 [pyrene]
Crystal size, reference without gelator ([3]; after 2 months): 2-12 μm | Crystal size, reference without gelator ([3]; after 7 days, 18 days or 1 month): 0.4-9 μm | Crystal size in gel ([3]; gel of 12, 1:1, DMSO/H2O, after 1 month): ~150 nm | Particle size in gel ([3]; gel of 12, 1:1, DMSO/H2O, after 7 days, room temperature, dark): 37-185 nm | Particle size in gel ([3]; gel of 12, 1:1, DMSO/H2O, after 18 days): 30-190 nm | Crystal size, gelator in solution ([3]; with 12 1:1 in DMSO/1N HCl 100 μL/900 μL (not gelled), after 7 days): 0.2-3 μm | Size of larger crystals, gelator in solution ([3]; with 12 1:1 in DMSO/1N HCl (not gelled), after 1 month): 6 μm

Length of rod-shaped particles, reference without gelator ([3]; DMSO 100 μL + water 900 μL): 15-53 μm | Width of rod-shaped particles, reference without gelator ([3]; DMSO 100 μL + water 900 μL): 0.5-10 μm | Presence of rod-shaped particles ([3]; freeze-dried gel of 12, 5:1): no rod-shaped particles were present | Length of rod-shaped particles in gel ([3]; gel of 12, 1:1, some particles): 9 μm | Width of rod-shaped particles in gel ([3]; gel of 12, 1:1, some particles): 0.7 μm | Size of some particles in gel ([3]; gel of 12, 2:1): 2 μm | Size of very few particles in gel ([3]; gel of 12, 2:1): 10 μm | Presence of rod-shaped particles ([3]; gel of 12, 5:1): no rod-shaped particles are present | Size of some particles in gel ([3]; gel of 12, 5:1): 400 nm | Average particle size in gel ([3]; gel of 12, gelator:danazol 1:1, DMSO/water 50 μL/950 μL): 140-700 nm | Average particle size in gel ([3]; gel of 12, gelator:danazol 2:1): 28 nm | Average particle size in gel ([3]; gel of 12, gelator:danazol 5:1): 14 nm
SMILES: C#C[C@]1(O)CC[C@H]2[C@@H]3CCC4=Cc5oncc5C[C@]4(C)[C@H]3CC[C@@]21C [danazol]
Presence of rod-shaped particles ([3]; gel of 12, 2:1): no rod-shaped danazol particles are present

Gel test ([1]; 3 mg/mL in H2O): clear gel | Gel test ([1]; EtOH/H2O mixtures): gel | Gel test ([1]; PEG 400/H2O mixtures): gel | Gel test ([1]; olive oil): gel | Gel test ([1]; toluene): gel
SMILES: COC(=O)[C@H](Cc1ccccc1)NC(=O)[C@@H]1C[C@H](C(=O)O)C[C@H](C(=O)N[C@@H](Cc2ccccc2)C(=O)OC)C1 [Compound 30, CHex(AmPhe-OMe)2(COOH)]
